Data on 36 molecules can be found in US20120316169A1, “2-ARYL-PROPIONAMIDE DERIVATIVES USEFUL AS BRADYKININ RECEPTOR ANTAGONISTS AND PHARMACEUTICAL COMPOSITIONS CONTAINING THEM” (DOMPÉ S.P.A., priority 2009, published 2012).

Structures are written as SMILES.

This experiment has as its target T1, BKB1 receptors (Homo sapiens, UniProt P46663).
T1 construct: Human (IMR-90) lung fibroblast cells expressing native B1 receptors; endogenous in cells; host or cells: IMR-90 human lung fibroblasts, interleukin-treated to up-regulate BKB1 receptors
T1 sequence (P46663 1-353): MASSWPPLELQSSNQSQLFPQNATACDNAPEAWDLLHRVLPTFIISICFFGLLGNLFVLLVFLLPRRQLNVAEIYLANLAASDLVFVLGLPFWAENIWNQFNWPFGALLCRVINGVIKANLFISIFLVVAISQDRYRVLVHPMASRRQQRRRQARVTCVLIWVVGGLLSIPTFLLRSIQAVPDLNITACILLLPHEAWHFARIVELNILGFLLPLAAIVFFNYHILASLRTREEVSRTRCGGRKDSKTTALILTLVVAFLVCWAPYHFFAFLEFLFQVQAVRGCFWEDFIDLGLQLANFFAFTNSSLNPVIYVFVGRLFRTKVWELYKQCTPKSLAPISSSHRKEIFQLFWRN
As to the kind of experiment: Calcium mobilization assay (FLIPR), B1 receptors in IMR-90 cells. The class given is cell-based. The settings on record: Human IMR-90 lung fibroblast cells, up-regulated BKB1 receptors, agonist desArg10-kallidin (DAKD) 2 to 8 nM, calcium-dependent fluorescence. As to the method: Calcium mobilization assay (FLIPR)—Human (IMR-90) lung fibroblast cells expressing native B1 receptors were harvested by trypsinization and seeded into black wall/clear bottom 96-well plates (Costar 3904; Corning Life Sciences, Acton, Mass.) at approximately 13,000 cells/well. After 1 day incubation, cells were treated with […] (0.35 ng/ml) in 10% FBS/MEM for 2 h to up-regulate BKB1 receptors. Induced cells were loaded with fluorescent calcium indicator by incubation with 2.3 μM Fluo-4/acetoxymethyl ester (Invitrogen) at 37° C. for 1.5 h in the presence of an anion transport inhibitor (2.5 mM probenecid in 1% FBS/MEM). Extracellular dye was removed by washing with assay buffer (2.5 mM probenecid, 0.1% BSA in 20 mM HEPES/HBSS without bicarbonate or phenol red, pH 7.5) and cell plates were kept in the dark until used. Test compounds were assayed at eight concentrations in triplicate. Addition of test compounds to the cell plate and incubation for 5 min at 35° C., followed by the addition of 2 to 8 nM final BK1 agonist desArg^10-kallidin (DAKD, 3×EC50) was carried out in the fluorimetric imaging plate reader (FLIPR; Molecular Devices) while continuously monitoring calcium-dependent fluorescence.
On the technique in general: A change in cytosolic calcium serves as a functional read-out for many receptors and channels.
`CC(F)(C(N)=O)c1ccc(OS(=O)(=O)C(F)(F)F)cc1` (stereo not drawn) [Compound 1, 4-(1-amino-2-fluoro-1-oxopropan-2-yl)phenyl trifluoromethanesulfonate]: the IC50 is 6.46 µM. As for `Cc1ccnn1CCNC(=O)C(C)(F)c1ccc(OS(=O)(=O)C(F)(F)F)cc1` (stereo not drawn) [Compound 2, 4-(2-fluoro-1-{[2-(5-methyl-1H-pyrazol-1-yl)ethyl]amino}-1-oxopropan-2-yl)phenyl trifluoromethanesulfonate], the 50% inhibitory concentration (IC50) was 6.17 µM. Take `CC(F)(C(=O)NCCNc1ccccn1)c1ccc(OS(=O)(=O)C(F)(F)F)cc1` (stereo not drawn) [Compound 3, 4-(2-fluoro-1-oxo-1-{[2-(pyridin-2-ylamino)ethyl]amino}propan-2-yl)phenyl trifluoromethanesulfonate]: the 50% inhibitory concentration (IC50) was 13.2 µM.

Regarding `CC(F)(C(=O)Nc1ccsc1S(N)(=O)=O)c1cccc(Nc2nc(C(F)(F)F)cs2)c1` (stereo not drawn) [Compound 4, 2-fluoro-N-(2-sulfamoylthiophen-3-yl)-2-(3-{[4-(trifluoromethyl)-1,3-thiazol-2-yl]amino}phenyl)propanamide], the concentration for half-maximal inhibition (IC50) was 4.27 µM. In the case of `CC(F)(C(=O)Nc1ccccc1S(N)(=O)=O)c1cccc(Nc2nc(C(F)(F)F)cs2)c1` (stereo not drawn) [Compound 5, 2-fluoro-N-(2-sulfamoylphenyl)-2-(3-{[4-(trifluoromethyl)-1,3-thiazol-2-yl]amino}phenyl)propanamide], the 50% inhibitory concentration (IC50) was 8.71 µM. The same measure for `CC(C)(C)NC(=O)CNC(=O)C(C)(C)c1ccc(OS(=O)(=O)C(F)(F)F)cc1` [Compound 6, 4-(2-methyl-1-{[2-(tert-butylamino)-2-oxoethyl]amino}-1-oxopropan-2-yl)phenyl trifluoromethanesulfonate]: 17.8 µM; for `CC(C)(C(=O)NCCc1ccncc1)c1ccc(OS(=O)(=O)C(F)(F)F)cc1` [Compound 7, 4-(2-methyl-1-oxo-1-{[2-(pyridin-4-yl)ethyl]amino}propan-2-yl)phenyl trifluoromethanesulfonate]: 11.5 µM. In the case of `CCn1cc(NC(=O)C(C)c2ccc(C(=O)c3ccccc3)s2)c(C)n1` (stereo not drawn) [Compound 8, N-(1-ethyl-3-methyl-1H-pyrazol-4-yl)-2-[5-(phenylcarbonyl)thiophen-2-yl]propanamide] it was 2.63 µM; in that of `COc1cccc(Nc2ccc(C(C)C(=O)NC3CCN(Cc4ccccc4)CC3)cc2)c1` (stereo not drawn) [Compound 9, 2-{4-[(3-methoxyphenyl)amino]phenyl}-N-(1-benzylpiperidin-4-yl)propanamide], 7.76 µM. In the case of `COc1cccc(Nc2ccc(C(C)C(=O)Nc3cc(C)nn3C)cc2)c1` (stereo not drawn) [Compound 10] it was 7.94 µM. For the molecule `Cc1cc(NC(=O)C(C)c2cccc(Oc3cccc(F)c3)c2)n(C)n1` (stereo not drawn) [Compound 11, N-(1,3-dimethyl-1H-pyrazol-5-yl)-2-[3-(3-fluorophenoxy)phenyl]propanamide], the IC50 is 11.2 µM. Consider `CC(C(=O)NCCNc1ccccc1)c1cccc(Oc2cccc(F)c2)c1` (stereo not drawn) [Compound 12, 2-[3-(3-fluorophenoxy)phenyl]-N-[2-(phenylamino)ethyl]propanamide], for which the concentration for half-maximal inhibition (IC50) was 7.24 µM. The same measure for `CC(C(=O)Nc1ccncn1)c1cccc(NC2CC2)c1` (stereo not drawn) [Compound 14, 2-[3-(cyclopropylamino)phenyl]-N-(pyrimidin-4-yl)propanamide]: 6.31 µM; for `CC(C(=O)Nc1ccncn1)c1cccc(Nc2ccc(N3CCOCC3)cc2)c1` (stereo not drawn) [Compound 15, 2-(3-{[4-(morpholin-4-yl)phenyl]amino}phenyl)N-(pyrimidin-4-yl)propanamide]: 9.12 µM.

In the case of `Cc1ccc(Cl)c(Nc2ccc(C(C)C(=O)NCCN3CCOCC3)cc2)c1Cl` (stereo not drawn) [Compound 16, 2-{4-[(2,6-dichloro-3-methylphenyl)amino]phenyl}-N-[2-(morpholin-4-yl)ethyl]propanamide], the IC50 was 12 µM. The same measure for `CC(C(=O)NCC(C)(C)N)c1cccc(Oc2cccc(OC(F)(F)F)c2)c1` (stereo not drawn) [Compound 18]: 2.09 µM. In the case of `CC(C(=O)NCCN1CCCC1)c1cccc(Oc2cccc(OC(F)(F)F)c2)c1` (stereo not drawn) [Compound 19, N-[(2-pyrrolidin-1-yl)ethyl]-2-{3-[3-(trifluoromethoxy)phenoxy]phenyl}propanamide] it was 7.76 µM; in that of `CC(C(=O)NCCOc1ccc(F)cc1)c1cccc(OS(=O)(=O)C(F)(F)F)c1` (stereo not drawn) [Compound 20, 3-(1-{[2-(4-fluorophenoxy)ethyl]amino}-1-oxopropan-2-yl)phenyl trifluoromethanesulfonate], 16.6 µM; in that of `CC(C(=O)Nc1nc(C(C)(C)C)cs1)c1ccc(NS(=O)(=O)C(C)C)cc1` (stereo not drawn) [Compound 21, 2-{4-[(propan-2-ylsulfonyl)amino]phenyl}-N-(4-tert-butyl-1,3-thiazol-2-yl)propanamide], 9.12 µM. The same measure for `COc1cccc(CN(C)CCNC(=O)C(C)c2ccc(NS(=O)(=O)C(C)C)cc2)c1` (stereo not drawn) [Compound 22]: 8.13 µM. Turning to `C=C(C)CNC(=O)C(C)c1cccc(C(=O)c2cccs2)c1` (stereo not drawn) [Compound 23, N-(2-methylprop-2-en-1-yl)-2-[3-(thiophen-2-ylcarbonyl)phenyl]propanamide], the IC50 is 21.9 µM. With `Cc1cc(NC(=O)C(C)c2cccc(C(=O)c3cccs3)c2)n(C)n1` (stereo not drawn) [Compound 24, N-(1,3-dimethyl-1H-pyrazol-5-yl)-2-[3-(thiophen-2-ylcarbonyl)phenyl]propanamide], the IC50 was 7.41 µM. In the case of `COc1cccc(Nc2ccc(C(C)C(=O)Nc3cc(C)nn3C)cc2)c1OC` (stereo not drawn) [Compound 25, 2-{4-[(2,3-dimethoxyphenyl)amino]phenyl}-N-(1,3-dimethyl-1H-pyrazol-5-yl)propanamide] it was 3.09 µM. The same measure for `COc1cccc(Nc2ccc(C(C)C(=O)Nc3ccncn3)cc2)c1OC` (stereo not drawn) [Compound 26, 2-{4-[(2,3-dimethoxyphenyl)amino]phenyl}-N-(pyrimidin-4-yl)propanamide]: 5.75 µM. The same measure for `CCCC/C=C/c1cccc(C(C)C(=O)NCCNC(C)C)c1` (stereo not drawn) [Compound 27, 2-{3-[hex-1-en-1-yl]phenyl}-N-[2-(propan-2-ylamino)ethyl]propanamide]: 8.51 µM; for `CCCC/C=C/c1cccc(C(C)C(=O)Nc2ccncn2)c1` (stereo not drawn) [Compound 28, 2-{3-[hex-1-en-1-yl]phenyl}-N-(pyrimidin-4-yl)propanamide]: 8.51 µM.

As for `CCc1cc(NC(=O)C(C)c2ccc(Nc3nc(C(F)(F)F)co3)cc2)[nH]n1` (stereo not drawn) [Compound 29, N-(3-ethyl-1H-pyrazol-5-yl)-2-(4-{[4-(trifluoromethyl)-1,3-oxazol-2-yl]amino}phenyl)propanamide], the half-maximal inhibitory concentration (IC50) was 7.08 µM. In the case of `CC(C(=O)NCC(=O)NC(C)(C)C)c1ccc(Nc2nc(C(F)(F)F)co2)cc1` (stereo not drawn) [Compound 30, N-[2-(tert-butylamino)-2-oxoethyl]-2-(4-{[4-(trifluoromethyl)-1,3-oxazol-2-yl]amino}phenyl)propanamide] it was 7.76 µM; in that of `COc1cccc(CN(C)CCNC(=O)C(C)c2ccc(Nc3nc(C(F)(F)F)co3)cc2)c1` (stereo not drawn) [Compound 31, N-{2-[(3-methoxybenzyl)(methyl)amino]ethyl}-2-(4-{[4-(trifluoromethyl)-1,3-oxazol-2-yl]amino}phenyl)propanamide], 7.76 µM; in that of `Cc1ccc(OCC(O)CNC(=O)C(C)c2ccc(Nc3nc(C(F)(F)F)co3)cc2)cc1C` (stereo not drawn) [Compound 32, N-[2-hydroxy-3-(3,4-dimethylphenoxy)propyl]-2-(4-{[4-(trifluoromethyl)-1,3-oxazol-2-yl]amino}phenyl)propanamide], 8.32 µM.

Regarding `CC(C(=O)Nc1nccs1)c1cccc(C(=O)c2ccccc2)c1` (stereo not drawn) [Compound 33, 2-[3-(phenylcarbonyl)phenyl]-N-(1,3-thiazol-2-yl)propanamide], the IC50 is 10.2 µM. On to `CC(C(=O)NC1CCCCC1)c1cccc(C(=O)c2ccccc2)c1` (stereo not drawn) [Compound 34, N-cyclohexyl-2-[3-(phenylcarbonyl)phenyl]propanamide], for which the IC50 is 8.51 µM. For `CC(C(=O)Nc1ccccc1)c1cccc(C(=O)c2ccccc2)c1` (stereo not drawn) [Compound 35, N-phenyl-2-[3-(phenylcarbonyl)phenyl]propanamide], the concentration for half-maximal inhibition (IC50) was 10 µM. In the case of `Cc1cc(NC(=O)C(C)c2cccc(C(=O)c3ccccc3)c2)n(C)n1` (stereo not drawn) [Compound 36, N-(1,3-dimethyl-1H-pyrazol-5-yl)-2-[3-(phenylcarbonyl)phenyl]propanamide] it was 9.77 µM; in that of `CC(C)Cc1ccc(C(C)C(=O)Nc2ccncc2)cc1` (stereo not drawn) [Compound 37, 2-[4-(2-methylpropyl)phenyl]-N-(pyridin-4-yl)propanamide], 1.38 µM. The same measure for `CC(C)Cc1ccc(C(C)C(=O)NC(N)=O)cc1` (stereo not drawn) [Compound 38, N-carbamoyl-2-[4-(2-methylpropyl)phenyl]propanamide]: 20 µM.

By IC50 is commonly meant the concentration that inhibits the measured activity by half.
